Assay results as given in publication PMC2806516 (Biochemistry, 2010).

Assays:
HpaA [1] = target: T1, HpaA (Pseudomonas aeruginosa, UniProt Q9HWT7); assay: stopped-flow; format: binding
T1 sequence (Q9HWT7 1-520): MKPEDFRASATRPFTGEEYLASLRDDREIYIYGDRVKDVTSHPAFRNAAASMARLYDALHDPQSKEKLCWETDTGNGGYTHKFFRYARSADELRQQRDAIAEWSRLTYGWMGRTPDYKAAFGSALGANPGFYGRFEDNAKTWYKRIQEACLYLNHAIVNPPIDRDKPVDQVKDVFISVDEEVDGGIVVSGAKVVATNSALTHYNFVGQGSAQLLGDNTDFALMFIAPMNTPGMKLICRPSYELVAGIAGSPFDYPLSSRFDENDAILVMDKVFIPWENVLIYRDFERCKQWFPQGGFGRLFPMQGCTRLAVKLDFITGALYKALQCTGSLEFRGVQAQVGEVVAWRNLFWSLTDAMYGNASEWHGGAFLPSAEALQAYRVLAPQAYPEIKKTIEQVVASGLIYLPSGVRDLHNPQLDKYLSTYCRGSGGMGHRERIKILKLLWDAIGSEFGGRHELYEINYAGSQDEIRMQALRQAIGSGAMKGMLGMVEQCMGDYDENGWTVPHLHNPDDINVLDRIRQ

HpaC [2] = target: T2, HpaC (Pseudomonas aeruginosa, UniProt Q9HWT6); assay: stopped-flow; format: binding
T2 sequence (Q9HWT6 1-170): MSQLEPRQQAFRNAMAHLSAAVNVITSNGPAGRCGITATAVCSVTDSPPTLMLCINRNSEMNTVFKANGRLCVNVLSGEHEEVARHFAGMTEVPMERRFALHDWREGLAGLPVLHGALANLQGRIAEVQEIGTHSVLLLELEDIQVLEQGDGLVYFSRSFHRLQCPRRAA

HpaC [3] = target: T2, HpaC; assay: fluorimetric titration; format: binding
HpaA [4] = target: T1, HpaA; assay: absorption spectral titration; format: binding
[5] = target: HpaA, oxygenase of p-hydroxyphenylacetate 3-hydroxylase (HPAH) from Pseudomonas aeruginosa, N-terminal His-tagged (P. aeruginosa); assay: SEC

Which Kd (HpaA [1]) does the source give for Cc1cc2c(cc1C)N(C[C@H](O)[C@H](O)[C@H](O)COP(=O)(O)OP(=O)(O)OC[C@H]1O[C@@H](n3cnc4c(N)ncnc43)[C@H](O)[C@@H]1O)c1[nH]c(=O)[nH]c(=O)c1N2 [FADH^−] here?
Its Kd is no more than 2 µM.

And the Kd (HpaC [2])?
Its Kd is roughly 20 µM.

Cc1cc2nc3c(=O)[nH]c(=O)nc-3n(C[C@H](O)[C@H](O)[C@H](O)COP(=O)(O)OP(=O)(O)OC[C@H]3O[C@@H](n4cnc5c(N)ncnc54)[C@H](O)[C@@H]3O)c2cc1C [FAD] was tested. Which Kd (HpaC [3]) did it give?
The Kd was 3 µM.

What about the Kd (HpaA [4]) of the same compound?
The Kd was no less than 250 µM.

With “HpaA, oxygenase of p-hydroxyphenylacetate 3-hydroxylase (HPAH) from Pseudomonas aeruginosa, N-terminal His-tagged (enzyme)” as the compound, how does the stoichiometry N [5] read?
Its stoichiometry N is 2.
